SMILES strings stand for the structures. ≈ marks a conversion by molar mass, not a printed value.

This is an account of results in patent US20130059855A1, “CRYSTAL OF DI(ARYLAMINO)ARYL COMPOUND” (ASTELLAS PHARMA INC., priority 2010, published 2013).

Series [1] is described as follows: Solubility in 50% acetone aqueous solution. Type of series: physicochemical. How it is done: (§1) The solubility of A02-type crystal, A03-type crystal and A04-type crystal was measured for 50% acetone aqueous solution. The solubility is lowest for A04-type crystal at all temperatures.
Series [2] can be described thus: Assessment of filterability (constant pressure filtration test, Ruth plot). The format is physicochemical. As to conditions: for Filtration Constant B / Cake Average Specific Resistance αm: crystallization slurry, applied pressure 100 kPa; for Filtration Constant B: from inclination of Ruth plot; for Cake Average Specific Resistance αm: constant pressure filtration. The source says: Slurries of A02-type crystal prepared by a method similar to that of the Variation of Reference Example 2 and A04-type crystal prepared by a method similar to that of Example 2 were used to perform constant pressure filteration test, and the cake-average filteration specific resistance αm was obtained by constant pressure filteration formula of Ruth shown in formula (1) to assess filterability. Note that the slurry used in the present test is the crystallization slurry immediately before the crystals are collected by filtration in the preparation of the crystals.
The calculation of cake average specific resistance αm [m/kg] was performed by plotting (Ruth plot) μ [m^3/m^2] and Δθ/Δν [sec/m], obtaining the filtration constant B from the inclination of the obtained line, and inserting the parameters shown in the filtration condition row of Table 1 to formula (2).

A short description of series [3]: Long term stability test (storage stability). Type of series: physicochemical. As to conditions: powder X-ray diffraction, DSC, HPLC. How it is done: A04-type crystal samples were separately stored for 3 months under (1) 40° C./75% R.H., (2) 60° C./uncontrolled humidity, and (3) 25° C./uncontrolled humidity/D65 lamp (1000 lux) illumination (2 months under condition (3)), and the change in the crystal form of the samples before and after storage was measured by powder X-ray diffraction and DSC analysis and the change in the purity of the same was confirmed by HPLC measurement (using HPLC Condition 1 or HPLC Condition 2 shown below as the measurement conditions).

Series [4] can be described thus: Assessment of the stability level (solubility, transformation, DSC). Type of series: physicochemical. As to conditions: all temperature range; A01- to A05-type crystals compared. The procedure:
as §1
(§2) A05-type crystal was subjected to slurry agitation under room temperature and its solvent-mediated transformation was studied.
The schematic diagram showing the interrelation of the stability levels of the crystals based on the above result is presented as FIG. 4.

The nature of the next series: Hygroscopicity Test A. The format is physicochemical. As to conditions: relative humidity of 93% (KNO3 saturated aqueous solution), 25° C., 7 days. The procedure: About 0.5 g of A04-type crystal was weighed into an (open) weighing bottle with a known mass to obtain a precise mass, then the weighing bottle was placed in a desiccator adjusted to a relative humidity of 93% by KNO3 saturated aqueous solution and stored at 25° C. for 7 days before measuring the change in mass.

Series [5] in a line: Hygroscopicity Test B (water absorption/dehydration behavior). Particulars: 25° C., humidity range of 5-95% R.H. The format is physicochemical. How it is done: The water absorption/dehydration behavior of A04-type crystal was assessed using water balance measuring apparatus SGA-X100 (VTI) under the following conditions. Temperature: 25° C., measurement range: 5-95% R.H., measurement interval: 5%.

The nature of series [6]: Study of solvent-mediated transformation. Particulars: slurry agitation in methyl ethyl ketone under room temperature. The format is physicochemical.
Text: as §2

A further series concerns mutant EGFR protein. Particulars: reported in Patent Document 1 (WO 2009/008371); cited from earlier work.
A further series relates to EML4-ALK fusion protein. Particulars: reported in Patent Document 1 (WO 2009/008371); cited from earlier work.

Turning to `COc1cc(N2CCC(N3CCN(C)CC3)CC2)ccc1Nc1ncnc(Nc2ccccc2S(=O)(=O)C(C)C)n1` [A02-type crystal, N-{2-methoxy-4-[4-(4-methylpiperazin-1-yl)piperidin-1-yl]phenyl}-N′-[2-(propane-2-sulfonyl)phenyl]-1,3,5-triazine-2,4-diamine], the results for the Solubility in series [1] (25° C.), in [1] (40° C.) and in series [1] (55° C.) were 13.6 mg/mL (≈ 23.4 mM), 17.7 mg/mL (≈ 30.5 mM) and 30.8 mg/mL (≈ 53 mM), respectively. Besides, the “Filtration Constant B” value in series [2] is listed as 81406. Moreover, in [2], the “Cake Average Specific Resistance αm” value is on record as 1.31×10^11 m/kg. Further, in series [2] (ratio of A02-type crystal to A04-type crystal, filtration time proportional), the “cake average specific resistance relative to A04-type crystal” value was “about 155 times”.
As to `COc1cc(N2CCC(N3CCN(C)CC3)CC2)ccc1Nc1ncnc(Nc2ccccc2S(=O)(=O)C(C)C)n1` [A03-type crystal, N-{2-methoxy-4-[4-(4-methylpiperazin-1-yl)piperidin-1-yl]phenyl}-N′-[2-(propane-2-sulfonyl)phenyl]-1,3,5-triazine-2,4-diamine], the results for the Solubility in series [1] (25° C.), in series [1] (40° C.) and in series [1] (55° C.) were 5.3 mg/mL (≈ 9.13 mM), 8.5 mg/mL (≈ 14.6 mM) and 16.1 mg/mL (≈ 27.7 mM), respectively.
Consider `COc1cc(N2CCC(N3CCN(C)CC3)CC2)ccc1Nc1ncnc(Nc2ccccc2S(=O)(=O)C(C)C)n1` [A04-type crystal, N-{2-methoxy-4-[4-(4-methylpiperazin-1-yl)piperidin-1-yl]phenyl}-N′-[2-(propane-2-sulfonyl)phenyl]-1,3,5-triazine-2,4-diamine], for which the “change in the crystal form or the purity after storage” value in series [3] (25° C./uncontrolled humidity/D65 lamp (1000 lux) illumination, 2 months) is recorded as “no significant change”; in [3] (40° C./75% R.H., 3 months), “no significant change”; in series [3] (60° C./uncontrolled humidity, 3 months), “no significant change”. The “thermodynamic stability level among crystal forms of Compound A” value in series [4] is listed as “most stable crystal”. The “change in mass (hygroscopicity)” value in the series “Hygroscopicity Test A” was “no significant change in mass”. Moreover, the figures for the Solubility in [1] (25° C.), in series [1] (40° C.) and in series [1] (55° C.) were 4.5 mg/mL (≈ 7.75 mM), 8.0 mg/mL (≈ 13.8 mM) and 13.0 mg/mL (≈ 22.4 mM), respectively. For the same compound, in [2], the “Filtration Constant B” value is given as 2201.7. Further, the “Cake Average Specific Resistance αm” value in series [2] is listed as 8.43×10^8 m/kg. In series [5], the “weight change through water absorption and dehydration” value is recorded as “lower than 0.1%”.
For `COc1cc(N2CCC(N3CCN(C)CC3)CC2)ccc1Nc1ncnc(Nc2ccccc2S(=O)(=O)C(C)C)n1` [A05-type crystal, N-{2-methoxy-4-[4-(4-methylpiperazin-1-yl)piperidin-1-yl]phenyl}-N′-[2-(propane-2-sulfonyl)phenyl]-1,3,5-triazine-2,4-diamine], the solvent-mediated transformation entry in series [6] is recorded as “transformed to A04-type crystal after 1 minute of agitation”.
Consider `COc1cc(N2CCC(N3CCN(C)CC3)CC2)ccc1Nc1ncnc(Nc2ccccc2S(=O)(=O)C(C)C)n1` [Compound A, N-{2-methoxy-4-[4-(4-methylpiperazin-1-yl)piperidin-1-yl]phenyl}-N′-[2-(propane-2-sulfonyl)phenyl]-1,3,5-triazine-2,4-diamine], for which the “inhibitory activity against the kinase activity of mutant EGFR protein” value with mutant EGFR protein was “good inhibitory activity”. For the same compound, the “inhibitory activity against the kinase activity of EML4-ALK fusion protein” value in the series with EML4-ALK fusion protein is reported as “good inhibitory activity”.
